Data on seven compounds can be found in patent US4650790A, “Drug combinations having synergistic effect” (Patentbureau Danubia, priority 1984, dated 1987).

Data set [1] relates to E. coli (Swine). The data set can be described thus: Microbiological assay, MIC and MBC, E. coli (Swine). It counts as cell-based. The settings on record: combinations 1:1 by weight.
The subject of data set [2] is Pseudomonas strains of mastitic origin. The settings on record: cited from earlier work.
For data set [3], the system named is Salmonella typhi-murium. The data set can be described thus: Microbiological assay, MIC and MBC, Salmonella typhi-murium. The settings on record: combinations 1:1 by weight. It counts as cell-based.
For data set [4] the following is noted: in vivo; cited from earlier work.
For data set [5], the system named is E. coli (Calf). The data set can be described thus: Microbiological assay, MIC and MBC, E. coli (Calf). The note with it: combinations 1:1 by weight.
The subject of data set [6] is Pasteurella multocida. The data set is described as follows: Microbiological assay, MIC and MBC, Pasteurella multocida. The note with it: combinations 1:1 by weight.
Data set [7] concerns Staphylococcus aureus. The data set can be described thus: Microbiological assay, minimal inhibiting (MIC) and minimal bactericide (MBC) concentrations, Staphylococcus aureus. The settings on record: combinations 1:1 by weight.
The test system of data set [8] is some Gram positive bacteria, Mycoplasma and the most important Treponema. The note with it: cited from earlier work.
Data set [9] has as its system Treponema hyodysenteriae. The note with it: orally applied; swine dysentery; British patent specification No. 2,072,012; cited from earlier work.
For data set [10], the system named is Mycoplasma hyopneumoniae. The settings on record: orally applied; enzootic pneumonia; Taylor, IPVS Congress 1982; cited from earlier work.
Setting [11] is: Escherichia coli, read-out: MBC.
Setting [12] is: Escherichia coli, read-out: MIC.

Usually MBC stands for the lowest tested concentration that kills the bacteria rather than only halting them. The MIC is the lowest concentration found to suppress growth.

Where a name gives a salt, the structure may show the parent alone. Read-outs that look alike come from different tables or passages of the source. A value given as a limit tells only on which side of the number the result lay.

For `CN[C@@H]1[C@@H](O[C@H]2O[C@H](CO)[C@@H](N)[C@H](O)[C@H]2O)OC2C[C@@H](N)[C@@H](O[C@H]3[C@H](O)[C@@H](O)[C@H](N)C[C@@H]3N)OC2[C@@H]1O` (stereo partly shown) [Apramycin], in [1] (setting [11]), the MBC stood at 25 µg/mL. For the same compound, the MIC in data set [1] (setting [12]) worked out at 25 µg/mL. The “effect against Pseudomonas strains of mastitic origin” value in data set [2] is “particularly strong effect”.
As to `NC[C@H]1O[C@H](O[C@H]2[C@H](O)[C@@H](O[C@H]3O[C@H](CO)[C@@H](O)[C@H](N)[C@H]3O)[C@H](N)C[C@@H]2N)[C@H](O)[C@@H](O)[C@@H]1O` [Kanamycin], the MBC was determined as 25 µg/mL in data set [1] (setting [11]) and 50 µg/mL in data set [3] (Salmonella enterica, read-out: MBC). The MIC in [1] (setting [12]) was found to be 10 µg/mL; in [3] (Salmonella enterica, read-out: MIC), 25 µg/mL.
In the case of `NC[C@@H]1O[C@H](O[C@H]2[C@@H](O)[C@H](O[C@@H]3[C@@H](O)[C@H](N)C[C@H](N)[C@H]3O[C@H]3O[C@H](CN)[C@@H](O)[C@H](O)[C@H]3N)O[C@@H]2CO)[C@H](N)[C@@H](O)[C@@H]1O` [Neomycin], the MBC in data set [1] is 10 µg/mL; in data set [3] it was 25 µg/mL; in data set [5], greater than 200 µg/mL; in [6], 5 µg/mL; in data set [7], 25 µg/mL. Also, the MIC is 5 µg/mL in data set [1]; 10 µg/mL in [3]; greater than 200 µg/mL in data set [5]; 1 µg/mL in [6]; 10 µg/mL in data set [7]. Also, in data set [4], the nephrotoxic properties entry was “may cause azotaemia and oliguria”.
Consider `[H]/N=C(/N)N[C@H]1[C@H](O)[C@@H](O)[C@H](O[C@@H]2O[C@@H](C)[C@](O)(C=O)[C@H]2O[C@@H]2O[C@@H](CO)[C@H](O)[C@@H](O)[C@@H]2NC)[C@@H](N/C(N)=N\[H])[C@@H]1O` [Streptomycin], for which, in [1] (setting [11]), the MBC is greater than 200 µg/mL. Further, in [1] (setting [12]), the MIC worked out at 100 µg/mL.
For the compound `C=C[C@]1(C)C[C@@H](OC(=O)CSCCN(CC)CC)[C@]2(C)[C@H](C)CC[C@]3(CCC(=O)[C@H]32)[C@@H](C)[C@@H]1O` [Tiamulin, 14-desoxy-14-[(2-diethyl-amino-ethyl)-mercapto-acetoxy]-mutilin hydrogen fumarate], the MBC in data set [1] (setting [11]) amounted to 100 µg/mL. Besides, the MIC in [1] (setting [12]) was 50 µg/mL. Moreover, the “effectiveness against some Gram positive bacteria, Mycoplasma and Treponema” value in data set [8] was “effective against some Gram positive bacteria, Mycoplasma and the most important Treponema”. In data set [9], the “effectiveness against Treponema hyodysenteriae” value is on record as “extremely effective”. In [10], the “effectiveness against Mycoplasma hyopneumoniae” value is “extremely effective”.
As to `NC[C@H]1O[C@H](O[C@H]2[C@H](O)[C@@H](O[C@H]3O[C@H](CO)[C@@H](O)[C@H](N)[C@H]3O)[C@H](N)C[C@@H]2N)[C@H](N)C[C@@H]1O` [Tobramycin], the MBC in [1] (setting [11]) amounted to 5 µg/mL. For the same compound, the MIC in data set [1] (setting [12]) was 1 µg/mL.
Consider Gentamycin, for which the MBC in [1] stood at 5 µg/mL; in data set [3], 5 µg/mL; in data set [5], 5 µg/mL; in data set [6] it was 1 µg/mL; in [7], 5 µg/mL. Moreover, the MIC in [1] was 5 µg/mL; in data set [3], 5 µg/mL; in [5], 5 µg/mL; in [6], less than 0.5 µg/mL; in data set [7] it was 0.5 µg/mL.
